Measurements taken from article PMC4805298, “Activation of Plant Innate Immunity by Extracellular High Mobility Group Box 3 and Its Inhibition by Salicylic Acid” (PLoS Pathogens, 2016).

Columns and labels:
HMGB3 [1] = target: T1, HMGB3 (Arabidopsis thaliana, UniProt P93047); test: photoaffinity crosslinking, immunoblot with anti-SA antibody; format: binding; conditions: 50 uM 4AzSA, PBS, on ice, 254 nm UV 30 mJ; covalent
T1 construct: ORF in pET30 Xa/LIC, 6xHis-tagged, E. coli BL21, Ni-NTA and Superdex 200 purified; ABRC ORF clone
T1 sequence (P93047 1-141): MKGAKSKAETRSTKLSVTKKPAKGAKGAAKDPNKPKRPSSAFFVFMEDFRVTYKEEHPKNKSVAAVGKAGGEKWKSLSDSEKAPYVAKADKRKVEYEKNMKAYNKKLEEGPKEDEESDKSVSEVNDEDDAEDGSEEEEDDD

HMGB3 [2] = target: T1, HMGB3; test: SPR competition on 3AESA chip; competition of 4AzSA photoaffinity crosslinking; format: binding; conditions: 1 uM HMGB3 in SPR; 50 uM 4AzSA in PBS for crosslinking; competitive

SMILES | photoaffinity crosslinking, immunoblot with anti-SA antibody (HMGB3 [1]) | SPR competition on 3AESA chip; competition of 4AzSA photoaffinity crosslinking (HMGB3 [2])
[N-]=[N+]=Nc1ccc(C(=O)O)c(O)c1 [4AzSA, 4-azido SA] | HMGB3 was effectively crosslinked to 4AzSA by UV irradiation | –
O=C(O)c1ccccc1O [SA, salicylic acid] | – | this binding was competed in the presence of increasing concentrations of SA
